From the OligoGym collection
Where “and” joins values, the source holds several entries; their conditions need not be identical. Equal values may be shown once. After the bases stand the sugars from the 5' end (letter, count) and the backbone: PS all phosphorothioate, else s phosphorothioate and o phosphodiester by linkage. Methylation of C is not given here. e = 2'-O-(2-methoxyethyl) (MOE); k = constrained ethyl (cEt); d = 2'-deoxy (DNA)

Biological target: IRF4
Conditions: ASO

Sequence	target mRNA inhibition (SK-MEL-28, 4 µM)	target mRNA inhibition (MM.1R, 1 µM)	also measured
ACTCAATGTGCACCTT (sugars k3 d10 k3, PS)	29%		
ACTGAACCATGTTCCT (sugars k3 d10 k3, PS)	51%		
ACTGACTAACAGGGAG (sugars k3 d10 k3, PS)	49%		
ACTGCTGTGTGTCAAA (sugars k3 d10 k3, PS)	-6%		
ACTGCTTGAGGTTTTC (sugars k3 d10 k3, PS)	58%		
ACTGCTTGAGGTTTTC (sugars kdddddddddkekeke, PS)		21%	
ACTGCTTGAGGTTTTC (sugars kkddddddddddkeke, PS)		21%	
ACTGCTTGAGGTTTTC (sugars kkdddddddddkekek, PS)		24%	
ACTGCTTGAGGTTTTC (sugars kkkdddddddddkeke, PS)		38%	
ACTGGATCTGAATTGT (sugars k3 d10 k3, PS)	57%		
ACTGGCATTGAGACGG (sugars k3 d10 k3, PS)	72% and 79%		
ACTGGGTACATGGCAG (sugars k3 d10 k3, PS)	59%		
ACTGTATGGAACCCCA (sugars k3 d10 k3, PS)		30%	
ACTGTTAAAGCAGCAT (sugars k3 d10 k3, PS)	71%		
ACTGTTTTAAGAGGCG (sugars k3 d10 k3, PS)	68% and 70%		
ACTTAAAATCCACACC (sugars k3 d10 k3, PS)	7%		
ACTTATAGCACTCTCC (sugars k3 d10 k3, PS)		1%	
ACTTGTGACCCACATA (sugars k3 d10 k3, PS)		-4%	
ACTTTTAGAGAGGAGA (sugars kkdddddddddkdkdk, PS)		34%	
ACTTTTAGAGAGGAGA (sugars kkkddddddddkekek, PS)		21%	
AGAAAACCCCCCTCTC (sugars k3 d10 k3, PS)	23%		
AGAAACGAGTTGACAC (sugars k3 d10 k3, PS)	15%		
AGAAAGAGCTGGTAGG (sugars k3 d10 k3, PS)	36%		
AGAACGAGGTAAATCT (sugars k3 d10 k3, PS)	40%		
AGAAGTACGAGCACAT (sugars k3 d10 k3, PS)	44%		
AGACAGACTTCCAAGA (sugars k3 d10 k3, PS)	36%		

Sequence	target mRNA inhibition (SK-MEL-28, 4 µM)	target mRNA inhibition (MM.1R, 1 µM)	also measured
AGACAGAGAGTCCGAC (sugars k3 d10 k3, PS)	7%		
AGACAGTGCGCCCCAA (sugars k3 d10 k3, PS)		-17%	
AGACGAAAACAGCCGC (sugars k3 d10 k3, PS)	25%		
AGAGTGAGATGCGGAG (sugars k3 d10 k3, PS)		65% and 63%	
AGATAACGAGGTGCCT (sugars k3 d10 k3, PS)	23%		
AGATAAGAAGCACTGG (sugars k3 d10 k3, PS)	25%		
AGATCTGTGGTAATCT (sugars k3 d10 k3, PS)		-3%	
AGATGCGGAGGTTCCT (sugars k3 d10 k3, PS)		32%	
AGATGTATACATCACT (sugars k3 d10 k3, PS)	76% and 71%		
AGCAAAGAGGGTCACA (sugars k3 d10 k3, PS)	68%		
AGCAACACGGGAATTT (sugars k3 d10 k3, PS)	57%		
AGCAAGAGCTTACTGT (sugars k3 d10 k3, PS)		-6%	
AGCAATTGAAATGGAG (sugars k3 d10 k3, PS)	22%		
AGCACATGTCAACAGT (sugars k3 d10 k3, PS)	31%		
AGCATCTAAGGCAAGC (sugars k3 d10 k3, PS)	57%		
AGCATTTTATCATCCG (sugars kkkdddddddddkeke, PS)		42%	
AGCCACTGGCGGAGCT (sugars k3 d10 k3, PS)	38%		
AGCCAGAGCAGTAAAC (sugars k3 d10 k3, PS)	15%		
AGCCATCGGCAGCTGA (sugars k3 d10 k3, PS)	14%		
AGCCCAAAGTTACATC (sugars k3 d10 k3, PS)	42%		
AGCCCTTACCTCGCCC (sugars k3 d10 k3, PS)	25%		
AGCCGAAGCATTTTAT (sugars k3 d10 k3, PS)	44%		
AGCCGAGGCCTCCTTT (sugars k3 d10 k3, PS)		-28%	
AGCCGCCACATCAGCA (sugars k3 d10 k3, PS)	21%		
AGCTAACTTACAGGAC (sugars k3 d10 k3, PS)	-4%		
AGCTAGAACATGATGA (sugars k3 d10 k3, PS)	5%		

Sequence	target mRNA inhibition (SK-MEL-28, 4 µM)	target mRNA inhibition (MM.1R, 1 µM)	also measured
AGCTATGCTCTAGGAA (sugars k3 d10 k3, PS)		11%	
AGCTGAGCTGATCATC (sugars k3 d10 k3, PS)	56%		
AGCTGCCACTGGTAAC (sugars k3 d10 k3, PS)		0%	
AGCTTAGTTATCTGGG (sugars k3 d10 k3, PS)	54% and 59%		
AGCTTGATAAAGGCTG (sugars k3 d10 k3, PS)	36%		
AGCTTGATAAAGGCTG (sugars kddddddddddkekek, PS)		1%	
AGCTTGATAAAGGCTG (sugars kkdddddddddekeke, PS)		18%	
AGGAACAAGTGTATCT (sugars k3 d10 k3, PS)	46%		
AGGAAGCACTGGCATC (sugars k3 d10 k3, PS)	57%		
AGGAGATATTAATTAC (sugars k3 d10 k3, PS)	57%		
AGGCACATCAATGTTT (sugars k2 d9 e3 k2, PS)		36% and 43%	
AGGCACATCAATGTTT (sugars k3 d10 k3, PS)	51%		
AGGCACATCAATGTTT (sugars kddddddddddkekek, PS)		5%	
AGGCACATCAATGTTT (sugars kkddddddddddkeke, PS)		16% and 14%	
AGGCACGGCTTCAGTC (sugars k3 d10 k3, PS)	49%		
AGGCAGGGACCGCGCC (sugars k3 d10 k3, PS)		-11%	
AGGGAACAGATAGTTA (sugars k3 d10 k3, PS)	34%		
AGGGAATCCCTTATTA (sugars k3 d10 k3, PS)	6%		
AGGGAGCTCATTTTGA (sugars k3 d10 k3, PS)		-8%	
AGGGTCACAGGTAAGG (sugars k3 d10 k3, PS)	68%		
AGGTAAGGGCCCCGTG (sugars k3 d10 k3, PS)	47%		
AGGTAGTGGCCCCAGC (sugars k3 d10 k3, PS)	60%		
AGGTTCCTGTCACCTG (sugars k3 d10 k3, PS)		-7%	
AGTACGAGCACATGTC (sugars k3 d10 k3, PS)	34%		
AGTACTTGGACAGAAG (sugars k3 d10 k3, PS)	43%		
AGTAGCTGGGCCCTCG (sugars k3 d10 k3, PS)	62%		

Sequence	target mRNA inhibition (SK-MEL-28, 4 µM)	target mRNA inhibition (MM.1R, 1 µM)	also measured
AGTATGAGAAACGGCC (sugars e1 k2 d9 k2 e2, PS)		12%	
AGTATGAGAAACGGCC (sugars kkdddddddddkdkdk, PS)		6%	
AGTATGAGAAACGGCC (sugars kkkddddddddkekek, PS)		10%	
AGTCAGACAGTGCGCC (sugars k3 d10 k3, PS)	10%		
AGTCCTCAAATCTTCA (sugars k3 d10 k3, PS)	54%		
AGTCGCGCAAGTCTAC (sugars k3 d10 k3, PS)		0%	
AGTGACTTGCATCCAT (sugars kddddddddddkekek, PS)		2%	
AGTGAGATGCGGAGGT (sugars k3 d10 k3, PS)		65%	
AGTGATGTCAGGTTTT (sugars kkdddddddddekeke, PS)		33%	
AGTGTCTAAAGTCCCA (sugars k2 d9 e3 k2, PS)		26% and 12%	
AGTGTCTAAAGTCCCA (sugars k3 d10 k3, PS)		42% and 58%	target mRNA inhibition (MM.1R, 0.0625 µM): 15%; target mRNA inhibition (MM.1R, 0.25 µM): 34%; target mRNA inhibition (MM.1R, 4 µM): 75%
AGTGTCTAAAGTCCCA (sugars kddddddddddkekek, PS)		-1% and 3%	
AGTGTCTAAAGTCCCA (sugars kkddddddddddkeke, PS)		32% and 39%	
AGTGTCTAAAGTCCCA (sugars kkdddddddddkdkdk, PS)		14% and -5%	
AGTTAAGGTGCCTCAA (sugars k3 d10 k3, PS)	-1%		
AGTTCATGTAAAGTCT (sugars k3 d10 k3, PS)	56% and 61%		
AGTTCATGTAAAGTCT (sugars kdddddddddkekeke, PS)		29% and 10%	
AGTTCATGTAAAGTCT (sugars kkddddddddddkeke, PS)		45% and 49%	
AGTTGTAAATGAGTCG (sugars k3 d10 k3, PS)	85%		
AGTTGTAAATGAGTCG (sugars kdddddddddkekeke, PS)		47%	
AGTTGTAAATGAGTCG (sugars kkkdddddddddkeke, PS)		77%	target mRNA inhibition (MM.1R, 0.074 µM): 29%; target mRNA inhibition (MM.1R, 0.222 µM): 58%; target mRNA inhibition (MM.1R, 0.666 µM): 76%; target mRNA inhibition (MM.1R, 2 µM): 90%
ATAAAGACCTTAACCA (sugars k3 d10 k3, PS)	27%		
ATAATTGGCACGAGGA (sugars k3 d10 k3, PS)	67%		
ATACATGTCTGGTTTA (sugars k3 d10 k3, PS)		4%	
ATACTGGTTGGTTGGC (sugars k3 d10 k3, PS)		69% and 75%	target mRNA inhibition (KMS11, 0.2 µM): 74% and 76%; target mRNA inhibition (MM.1R, 0.0625 µM): 51%; target mRNA inhibition (MM.1R, 0.25 µM): 61%; target mRNA inhibition (MM.1R, 4 µM): 86%
ATACTGTAAGGGCTGC (sugars k3 d10 k3, PS)	54%		
